Assay results as given in patent publication US20240148821A1, “PHARMACEUTICAL USE OF CYCLIC PEPTIDE COMPOUND” (CHUGAI SEIYAKU KABUSHIKI KAISHA, priority 2021, published 2024).
Bridge positions count the residues as written; N and C are the ends. Square brackets hold non-standard residues; d marks the D form. Peptide text beside a SMILES is read from it. * marks the point of attachment. hPhe(3-Cl-4-CF3) = N[C@@H](CCc1ccc(C(F)(F)F)c(Cl)c1)C(=O)O; hPhe(3-F,4-CF3) = N[C@@H](CCc1ccc(C(F)(F)F)c(F)c1)C(=O)O; NMePhe(4-CF3) = CN[C@@H](Cc1ccc(C(F)(F)F)cc1)C(=O)O; NMePhe(4-Me) = CN[C@@H](Cc1ccc(C)cc1)C(=O)O; NMePhe(2-Cl) = CN[C@@H](Cc1ccccc1Cl)C(=O)O; NMeGly(cPent) = CN[C@H](C(=O)O)C1CCCC1; Pro(4,4-F2) = O=C(O)[C@@H]1CC(F)(F)CN1; NMeCha = CN[C@@H](CC1CCCCC1)C(=O)O; NMeChg = CN[C@H](C(=O)O)C1CCCCC1; NMeI = CC[C@H](C)[C@H](NC)C(=O)O; NMeT = CN[C@H](C(=O)O)[C@@H](C)O; NMeD = CN[C@@H](CC(=O)O)C(=O)O; NMeL = CN[C@@H](CC(C)C)C(=O)O; NMeV = CN[C@H](C(=O)O)C(C)C; d(β3hA) = C[C@@H](N)CC(=O)O; NMeS = CN[C@@H](CO)C(=O)O; Pip = O=C(O)[C@@H]1CCCCN1; Morpholide = C1CN(*)CCO1; NMeA = CN[C@@H](C)C(=O)O; NMeAib = CNC(C)(C)C(=O)O; Nle = CCCC[C@H](N)C(=O)O; Piperidide = C1CCN(*)CC1; Pra = C#CC[C@H](N)C(=O)O; dNMeA = CN[C@H](C)C(=O)O; Ac5c = NC1(C(=O)O)CCCC1; Aze = O=C(O)[C@@H]1CCN1; Sar = CNCC(=O)O; Propyl = CCC*

Assays:
[1] = biological target: protein-protein interaction between Kras and SOS1 (biotin-tagged human Kras loaded with GDP, His-tagged human SOS1) (Homo sapiens (Human), UniProt P01116, G12D); assay: Protein-protein interaction inhibition between Kras and SOS1 (KrasG12D-SOS PPI) using AlphaScreen; assay type: biochemical; settings: AlphaScreen; biotin-tagged human Kras loaded with GDP, His-tagged human SOS1; read-out: KRAS G12D-SOS PPI IC50;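 further: kras produced in E. coli, Ni-coupled donor beads and streptavidin acceptor beads, excitation 680 nm with emission detected at 520–620 nm via singlet oxygen transfer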
[2] = system: Human pancreatic cancer cell line AsPC-1 (G12D mutation Kras); assay: AsPC-1 cell growth inhibition (AsPC-1 CGI); assay type: cell-based; settings: read-out: AsPC-1 cell growth inhibition, 50% growth inhibitory concentration (IC50 value); 96 hours, CellTiter-Glo, values classified in ranges
Description: Test compounds were serially dilated with dimethyl sulfoxide, and 200 nL was then dispensed to a U-bottom 96-well plate using Labcyte Echo. […] The cell suspension was dispensed to a. plate containing a test compound at 100 μL per well and incubated at 37° C. in a 5% carbon dioxide gas incubator. 96 hours later, 80 μL of CellTiter-Glo (Promega) was added to each well and fluorescence was measured.

In the case of `CCCOC[C@H]1C(=O)N(C)CC(=O)N[C@@H](CCc2ccc(C(F)(F)F)c(F)c2)C(=O)N2CCC[C@H]2C(=O)NC2(CCCC2)C(=O)N(C)[C@@H](C2CCCC2)C(=O)N(C)[C@H](C(=O)N(C)C)CC(=O)N(C)[C@@H](CC(C)C)C(=O)N[C@@H]([C@@H](C)CC)C(=O)N(C)[C@@H](C)C(=O)N2CC[C@H]2C(=O)N1C` [Compound 289] ([NMeL]I[NMeA][Aze][NMeS](Propyl)[Sar][hPhe(3-F,4-CF3)]P[Ac5c][NMeGly(cPent)][NMeD]-NMe2; lactam N-11), the IC50 [1] is reported as 0.3 nM and the IC50 [2] is reported as ≤ 20 nM.
In the case of `CC[C@H](C)[C@@H]1NC(=O)[C@H](CC(C)C)N(C)C(=O)C[C@@H](C(=O)N2CCOCC2)N(C)C(=O)[C@H]([C@@H](C)CC)N(C)C(=O)C2(CCCC2)NC(=O)[C@@H]2CC(F)(F)CN2C(=O)[C@H](CCc2ccc(C(F)(F)F)c(Cl)c2)NC(=O)CN(C)C(=O)[C@H](Cc2ccc(C(F)(F)F)cc2)N(C)C(=O)[C@@H]2CCN2C(=O)[C@H](C)N(C)C1=O` [Compound 1311] ([NMeL]I[NMeA][Aze][NMePhe(4-CF3)][Sar][hPhe(3-Cl-4-CF3)][Pro(4,4-F2)][Ac5c][NMeI][NMeD]-Morpholide; lactam N-11), the IC50 [1] is reported as 0.51 nM and the IC50 [2] is reported as ≤ 20 nM.
For `CC[C@H](C)[C@@H]1NC(=O)[C@H](CC(C)C)N(C)C(=O)C[C@@H](C)NC(=O)[C@H](C2CCCC2)N(C)C(=O)C2(CCCC2)NC(=O)[C@@H]2CCCN2C(=O)[C@H](CCc2ccc(C(F)(F)F)c(Cl)c2)NC(=O)[C@@H](C)N(C)C(=O)[C@H](Cc2ccc(C)cc2)N(C)C(=O)[C@@H]2CCN2C(=O)CN(C)C1=O` [Compound 1517] (cyclo([Ac5c][NMeGly(cPent)][d(β3hA)][NMeL]I[Sar][Aze][NMePhe(4-Me)][dNMeA][hPhe(3-Cl-4-CF3)]P)), the IC50 [1] was 49 nM and the IC50 [2] was > 500 nM.
With `CC[C@H](C)[C@@H]1NC(=O)[C@H](CC(C)C)N(C)C(=O)C[C@@H](C(=O)N2CCCCC2)N(C)C(=O)[C@H](C(C)C)N(C)C(=O)C2(CCCC2)NC(=O)[C@@H]2CCCN2C(=O)[C@H](CCc2ccc(C(F)(F)F)c(Cl)c2)NC(=O)CN(C)C(=O)[C@H](CC2CCCCC2)N(C)C(=O)[C@@H]2CCN2C(=O)[C@H](CC2CCCCC2)N(C)C1=O` [Compound 1574] ([NMeL]I[NMeCha][Aze][NMeCha][Sar][hPhe(3-Cl-4-CF3)]P[Ac5c][NMeV][NMeD]-Piperidide; lactam N-11) the IC50 [1] was 35 nM and the IC50 [2] was > 500 nM.
`CC[C@H](C)[C@@H]1NC(=O)[C@H](CC(C)C)N(C)C(=O)C[C@@H](C(=O)N2CCCCC2)N(C)C(=O)[C@H](C2CCCCC2)N(C)C(=O)C2(CCCC2)NC(=O)[C@H]([C@@H](C)O)N(C)C(=O)[C@H](CCc2ccc(C(F)(F)F)c(Cl)c2)NC(=O)CN(C)C(=O)[C@H](CC2CCCCC2)N(C)C(=O)CN(C)C(=O)CN(C)C1=O` [Compound 118] ([NMeL]I[Sar][Sar][NMeCha][Sar][hPhe(3-Cl-4-CF3)][NMeT][Ac5c][NMeChg][NMeD]-Piperidide; lactam N-11) was tested, and the IC50 [1] was 1.9 nM and the IC50 [2] was > 500 nM.
With `C#CC[C@@H]1NC(=O)[C@H](CC(C)C)N(C)C(=O)C[C@@H](C(=O)N2CCCCC2)N(C)C(=O)[C@H](C(C)C)N(C)C(=O)C2(CCCC2)NC(=O)[C@@H]2CCCN2C(=O)[C@H](CCc2ccc(C(F)(F)F)c(Cl)c2)NC(=O)CN(C)C(=O)[C@H](CC2CCCCC2)N(C)C(=O)[C@@H]2CCN2C(=O)[C@H](C)N(C)C1=O` [Compound 946] ([NMeL][Pra][NMeA][Aze][NMeCha][Sar][hPhe(3-Cl-4-CF3)]P[Ac5c][NMeV][NMeD]-Piperidide; lactam N-11) the IC50 [1] was 7.5 nM and the IC50 [2] was > 500 nM.
In the case of `CCCC[C@@H]1NC(=O)[C@H](CCc2ccc(C(F)(F)F)c(Cl)c2)NC(=O)CN(C)C(=O)[C@H](CC2CCCCC2)N(C)C(=O)[C@@H]2CCN2C(=O)CN(C)C(=O)[C@H]([C@@H](C)CC)NC(=O)[C@@H]2CCCCN2C(=O)C[C@@H](C(=O)N2CCCCC2)N(C)C(=O)[C@H](CC(C)C)NC(=O)C(C)(C)N(C)C1=O` [Compound 760] ([Pip]I[Sar][Aze][NMeCha][Sar][hPhe(3-Cl-4-CF3)][Nle][NMeAib]L[NMeD]-Piperidide; lactam N-11), the IC50 [1] is reported as 5.2 nM and the IC50 [2] is reported as > 500 nM.
In the case of `CCCOC[C@H]1C(=O)N(C)CC(=O)N[C@@H](CCc2ccc(C(F)(F)F)c(Cl)c2)C(=O)N2CCC[C@H]2C(=O)NC2(CCCC2)C(=O)N(C)[C@@H]([C@@H](C)CC)C(=O)N(C)[C@H](C(=O)N2CCCCC2)CC(=O)N(C)[C@@H](CC(C)C)C(=O)N[C@@H]([C@@H](C)CC)C(=O)N(C)[C@@H](C)C(=O)N2CC[C@H]2C(=O)N1C` [Compound 690] ([NMeL]I[NMeA][Aze][NMeS](Propyl)[Sar][hPhe(3-Cl-4-CF3)]P[Ac5c][NMeI][NMeD]-Piperidide; lactam N-11), the IC50 [1] is reported as 1.8 nM and the IC50 [2] is reported as ≤ 20 nM.
In the case of `CC[C@H](C)[C@@H]1NC(=O)[C@H](C)N(C)C(=O)C[C@@H](C(=O)N(C)C)N(C)C(=O)[C@H](C(C)C)N(C)C(=O)C2(CCCC2)NC(=O)[C@H](Cc2ccccc2Cl)N(C)C(=O)[C@H](CCc2ccc(C(F)(F)F)c(Cl)c2)NC(=O)CN(C)C(=O)[C@H](CC2CCCCC2)N(C)C(=O)CN(C)C(=O)CN(C)C1=O` [Compound 317] ([NMeA]I[Sar][Sar][NMeCha][Sar][hPhe(3-Cl-4-CF3)][NMePhe(2-Cl)][Ac5c][NMeV][NMeD]-NMe2; lactam N-11), the IC50 [1] is reported as 30 nM and the IC50 [2] is reported as > 500 nM.
